According to patent US20210070748A1, “INHIBITORS OF BRUTONS TYROSINE KINASE” (Pharmacyclics LLC, priority 2015, published 2021):
Where two headings read alike, the source gives them in different places.

What was measured:
[1] = biological target: T1, BTK-WT (Homo sapiens, UniProt Q06187); assay: Btk in vitro inhibitory activity (one of Method A TR-FRET, Method B electrophoretic mobility shift, Method C radiometric filter binding); type: biochemical; details: read-out: IC50 BTK-WT
T1 construct: purified from insect cells as a full-length construct containing an N-terminal 6X-His tag; His6 (N); made in house; host or cells: insect cells (baculovirus Sf21 in Method B)
T1 sequence (Q06187 whole entry): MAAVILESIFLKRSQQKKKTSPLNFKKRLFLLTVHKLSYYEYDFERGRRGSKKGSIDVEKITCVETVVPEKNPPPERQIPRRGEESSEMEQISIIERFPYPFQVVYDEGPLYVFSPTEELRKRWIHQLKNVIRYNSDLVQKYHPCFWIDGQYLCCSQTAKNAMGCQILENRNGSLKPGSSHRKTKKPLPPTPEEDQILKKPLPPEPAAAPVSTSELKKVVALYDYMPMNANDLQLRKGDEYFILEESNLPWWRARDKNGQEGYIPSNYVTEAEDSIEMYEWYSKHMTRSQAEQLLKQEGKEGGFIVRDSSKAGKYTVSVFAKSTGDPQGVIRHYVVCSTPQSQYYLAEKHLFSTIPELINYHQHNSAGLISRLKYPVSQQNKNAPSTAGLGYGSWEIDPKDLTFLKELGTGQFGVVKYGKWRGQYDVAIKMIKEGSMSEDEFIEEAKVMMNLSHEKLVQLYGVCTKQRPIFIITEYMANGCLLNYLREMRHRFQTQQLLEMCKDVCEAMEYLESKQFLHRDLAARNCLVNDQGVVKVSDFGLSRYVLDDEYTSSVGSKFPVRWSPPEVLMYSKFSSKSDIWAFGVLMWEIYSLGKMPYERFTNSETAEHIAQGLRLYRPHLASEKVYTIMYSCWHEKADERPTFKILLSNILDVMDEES
Description: Btk kinase activity is determined using a time-resolved fluorescence resonance energy transfer (TR-FRET) methodology. Measurements are performed in a reaction volume of 50 μL using 96-well assay plates. […] The reaction is quenched by the addition of 1.2 equivalents of EDTA (relative to divalent cation) in 25 μL of 1× Lance buffer (Perkin-Elmer). […] The TR-FRET signal is measured on a multimode plate reader with an excitation wavelength (λEx) of 330 nm and detection wavelengths (λEm) of 615 and 665 nm. Activity is determined by the ratio of the fluorescence at 665 nm to that at 615 nm. For each compound, enzyme activity is measured at various concentrations of compound. Negative control reactions are performed in the absence of inhibitor in replicates of six, and two no-enzyme controls are used to determine baseline fluorescence levels. Inhibition constants, Ki(app), were obtained using the program BatchKi(Kuzmic et al. (2000), Anal. Biochem. 286:45-50). IC50s are obtained according to the equation:
IC50={Ki(app)/(1+[ATP]/Km^ATP)}+[E]total/2;
Kinase activity is measured in vitro using electrophoretic mobility shift assay. The kinase reactions are assembled in a total volume of 25 μL in 384 well plates. […] The reaction is incubated for one hour and is quenched by the addition of 45 μL of termination buffer (100 mM HEPES, pH7.5, 0.01% Triton X-100, 30 mM EDTA). The terminated reactions are analyzed using 12 channel LabChip® 3000 microfluidic detection instrument (Caliper Life Sciences). […] Change in the relative fluorescence intensity of the substrate and product peaks is the parameter measured, reflecting enzyme activity. In the presence of an inhibitor, the ratio between product and substrate is altered: the signal of the product decreases, while the signal of the substrate increases.
Activity in each sample is determined as the product to sum ratio (PSR): P/(S+P), where P is the peak height of the product peptide and S is the peak height of the substrate peptide. For each compound, enzyme activity is measured at various concentrations (12 concentrations of compound spaced by 3× dilution intervals). Negative control samples (0%-inhibition in the absence of inhibitor) and positive control samples (100%-inhibition, in the presence of 20 mM EDTA) are assembled in replicates of four and are used to calculate %-inhibition values for each inhibitor at each concentration. Percent inhibition (Pinh) is determined using following equation:
Pinh=(PSR0%-PSRinh)/(PSR0%−PSR100%)*100, where PSRinh is the product sum ratio in the presence of inhibitor, PSR0% is the average product sum ration in the absence of inhibitor and PSR100% is the average product sum ratio in 100%-inhibition control samples;
The IC50 values of inhibitors are determined by 4 parameter sigmoidal dose-response model fitting of the inhibition curves (Pinh versus inhibitor concentration) using XLfit 4 software.
Human Btk kinase (Genbank accession # NP_000052) was purified from insect cells as a full-length construct containing an N-terminal 6X-His tag. Btk kinase activity was determined using a radiometric filter binding assay. Measurements are performed in a low μL reaction volume 384-well assay plates. […] IC50 values and curve fits were obtained using Prism (GraphPad Software).

[2] = biological target: T2, ITK (Homo sapiens, UniProt Q08881); assay: Inhibition of a panel of kinases, in vitro HotSpot kinase assay: ITK; type: biochemical
T2 sequence (Q08881 1-620): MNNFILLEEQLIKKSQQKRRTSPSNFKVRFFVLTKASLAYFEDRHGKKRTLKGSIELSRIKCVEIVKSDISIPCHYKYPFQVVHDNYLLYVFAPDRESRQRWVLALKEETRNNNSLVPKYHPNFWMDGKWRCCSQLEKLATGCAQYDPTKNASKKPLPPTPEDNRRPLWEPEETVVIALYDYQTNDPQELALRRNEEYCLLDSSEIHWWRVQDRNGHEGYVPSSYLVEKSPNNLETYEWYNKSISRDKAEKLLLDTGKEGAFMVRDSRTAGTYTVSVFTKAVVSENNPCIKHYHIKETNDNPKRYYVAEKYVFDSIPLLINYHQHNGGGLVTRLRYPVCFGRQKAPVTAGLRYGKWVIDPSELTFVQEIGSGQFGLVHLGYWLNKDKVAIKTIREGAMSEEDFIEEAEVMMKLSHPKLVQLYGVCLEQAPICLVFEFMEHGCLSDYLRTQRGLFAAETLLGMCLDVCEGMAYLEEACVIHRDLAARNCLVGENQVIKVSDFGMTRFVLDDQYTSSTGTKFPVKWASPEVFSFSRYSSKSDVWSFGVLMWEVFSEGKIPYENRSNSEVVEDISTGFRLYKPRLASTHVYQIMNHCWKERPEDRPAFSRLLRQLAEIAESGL
Description: The degree of inhibition of a panel of kinases is determined using the in vitro HotSpot kinase assay (purified enzymes, ^33P-ATP, an appropriate substrate and 1 μM ATP).

[3] = Table 15, C compounds, 1 μM ATP
[4] = Table 13, A compounds, 1 μM ATP

Compound	IC50 ([1]; E compounds, Table 17) [nM]	IC50 ([2]; E compounds, Table 17) [nM]	also measured
CN1C(=O)CCc2cc(Nc3nc(N[C@@H]4CCCN(C(=O)OC(C)(C)C)C4)nnc3C(N)=O)ccc21 [Example E-72, (R)-tert-butyl 3-(6-carbamoyl-5-(1-methyl-2-oxo-1,2,3,4-tetrahydroquinolin-6-ylamino)-1,2,4-triazin-3-ylamino)piperidine-1-carboxylate]	10 to 100	1000 to 10000	
C=CC(=O)N1CCC[C@@H](Nc2nnc(C(N)=O)c(Nc3ccc4c(c3)CCC(=O)N4C)n2)C1 [Example C-87, (R)-3-(1-acryloylpiperidin-3-ylamino)-5-(1-methyl-2-oxo-1,2,3,4-tetrahydroquinolin-6-ylamino)-1,2,4-triazine-6-carboxamide]			IC50 ([1]; Table 15, C compounds): ≤ 10 nM; IC50 [2, 3]: ≤ 10 nM
C=CC(=O)N1CCC[C@@H](Nc2nnc(C(N)=O)c(Nc3cccc(C)c3)n2)C1 [Example E-44, (R)-3-(1-acryloylpiperidin-3-ylamino)-5-(m-tolylamino)-1,2,4-triazine-6-carboxamide]	≤ 10	10 to 100	
C=CC(=O)N1CCC[C@@H](N(C(=O)C=C)c2nnc(C(N)=O)c(Nc3ccc(C4CC4)cc3)n2)C1 [Example C-49, (R)-3-(N-(1-acryloylpiperidin-3-yl)acrylamido)-5-(4-cyclopropylphenyl-amino)-1,2,4-triazine-6-carboxamide]			IC50 ([1]; Table 15, C compounds): ≤ 10 nM; IC50 [2, 3]: 1000 to 10000 nM
CN(c1cnc(C(N)=O)c(Nc2ccc(C3(C)CCN(C4CC4)CC3)cc2)n1)[C@@H]1CCN(C(=O)C(F)(F)F)C1 [Example E-105, (R)-3-(4-(1-cyclopropyl-4-methylpiperidin-4-yl)phenylamino)-5-(methyl(1-(2,2,2-trifluoroacetyl)pyrrolidin-3-yl)amino)pyrazine-2-carboxamide]	≤ 10	≤ 10	
C=CC(=O)N1CCC[C@H](N(C)c2nnc(C(N)=O)c(Nc3ccc(C(C)C)cc3)n2)C1 [Example C-43, (S)-3-((1-acryloylpiperidin-3-yl)(methyl)amino)-5-(4-isopropylphenylamino)-1,2,4-triazine-6-carboxamide]			IC50 ([1]; Table 15, C compounds): ≤ 10 nM; IC50 [2, 3]: 10 to 100 nM
C=CC(=O)N1CCC[C@H](Nc2nnc(C(N)=O)c(Nc3ccc(C(C)(C)C)cc3)n2)C1 [Example C-39, (S)-3-(1-acryloylpiperidin-3-ylamino)-5-(4-tert-butylphenylamino)-1,2,4-triazine-6-carboxamide]			IC50 ([1]; Table 15, C compounds): ≤ 10 nM; IC50 [2, 3]: 10 to 100 nM
C=CC(=O)N1CCC[C@H](Nc2cnc(C(N)=O)c(Nc3ccc(-c4ncccn4)cc3)n2)C1 [Example E-94, (S)-5-(1-acryloylpiperidin-3-ylamino)-3-(4-(pyrimidin-2-yl)phenylamino)pyrazine-2-carboxamide]	≤ 10	100 to 1000	
C=CC(=O)N[C@H]1CCCN(c2nnc(C(N)=O)c(Nc3ccc(C(C)C)cc3)n2)C1 [Example A-95, (S)-3-(3-acrylamido-piperidin-1-yl)-5-(4-isopropylphenylamino)-1,2,4-triazine-6-carboxamide]			IC50 ([1]; Table 13, A compounds): 10 to 100 nM; IC50 [2, 4]: 100 to 1000 nM
C=CC(=O)N[C@@H]1CCCN(c2nnc(C(N)=O)c(Nc3ccc(C(C)C)cc3)n2)C1 [Example A-94, (R)-3-(3-acrylamido-piperidin-1-yl)-5-(4-isopropylphenylamino)-1,2,4-triazine-6-carboxamide]			IC50 ([1]; Table 13, A compounds): 10 to 100 nM; IC50 [2, 4]: 100 to 1000 nM
C=CC(=O)N[C@@H]1CCCC[C@@H]1Nc1nnc(C(N)=O)c(Nc2ccc(C(C)C)cc2)n1 [Example E-34, 3-((1S,2R)-2-acrylamidocyclohexyl-amino)-5-(4-isopropylphenylamino)-1,2,4-triazine-6-carboxamide]	10 to 100	100 to 1000	
C=CC(=O)N1CCC[C@@H](Nc2nnc(C(N)=O)c(Nc3ccc(C4CC4)cc3)n2)C1 [Example E-36, (R)-3-(1-acryloylpiperidin-3-ylamino)-5-(4-cyclopropylphenyl-amino)-1,2,4-triazine-6-carboxamide]	≤ 10	10 to 100	
CN(c1cnc(C(N)=O)c(Nc2ccc(C3(C)CCN(C4CCCC4)CC3)cc2)n1)[C@@H]1CCN(C(=O)C(F)(F)F)C1 [Example E-107, (R)-3-(4-(1-cyclopentyl-4-methylpiperidin-4-yl)phenylamino)-5-(methyl(1-(2,2,2-trifluoroacetyl)pyrrolidin-3-yl)amino)pyrazine-2-carboxamide]	≤ 10	≤ 10	
C=CC(=O)N1CCC[C@@H](Nc2nnc(C(N)=O)c(Nc3ccc(-c4cnn(C(=O)C=C)c4)cc3)n2)C1 [Example C-74]			IC50 ([1]; Table 15, C compounds): ≤ 10 nM; IC50 [2, 3]: 10 to 100 nM

Now from value to compound, other results behind:

IC50 ([1]; E compounds, Table 17) [nM]	IC50 ([2]; E compounds, Table 17) [nM]	Compound	also measured
≤ 10	10 to 100	C=CC(=O)N1CCC[C@@H](Nc2nnc(C(N)=O)c(Nc3ccc(C(C)C)cc3)n2)[C@@H]1C [Example E-17, 3-((2S,3R)-1-acryloyl-2-methylpiperidin-3-ylamino)-5-(4-isopropylphenylamino)-1,2,4-triazine-6-carboxamide]	
10 to 100	100 to 1000	C=CC(=O)N[C@H]1CCCN(c2nnc(C(N)=O)c(Nc3ccc(C(C)C)cc3)n2)C1 [Example E-22, (S)-3-(3-acrylamidopiperidin-1-yl)-5-(4-isopropylphenylamino)-1,2,4-triazine-6-carboxamide]	
≤ 10	1000 to 10000	C=CC(=O)N1CCC[C@@H](N(C(=O)C=C)c2nnc(C(N)=O)c(Nc3ccc(C4CC4)cc3)n2)C1 [Example E-37, (R)-3-(N-(1-acryloylpiperidin-3-yl)acrylamido)-5-(4-cyclopropylphenyl-amino)-1,2,4-triazine-6-carboxamide]	
≤ 10	100 to 1000	C=CC(=O)N1CCC[C@H](Nc2cnc(C(N)=O)c(Nc3ccc(C(C)C)cc3)n2)C1 [Example E-101, (S)-5-(1-acryloylpiperidin-3-ylamino)-3-(4-isopropylphenylamino) pyrazine-2-carboxamide]	
≤ 10	100 to 1000	C=CC(=O)N1CCCC[C@H](Nc2nnc(C(N)=O)c(Nc3ccc(C(C)C)cc3)n2)C1 [Example E-19, (S)-3-(1-acryloylazepan-3-ylamino)-5-(4-isopropylphenylamino)-1,2,4-triazine-6-carboxamide]	
≤ 10	10 to 100	C=CC(=O)N1CCC[C@H](N(C)c2nnc(C(N)=O)c(Nc3ccc(C(C)C)cc3)n2)C1 [Example E-27, (S)-3-((1-acryloylpiperidin-3-yl)(methyl)amino)-5-(4-isopropylphenylamino)-1,2,4-triazine-6-carboxamide]	
